From article PMC7221589, “Development of a Rapid Mass Spectrometric Determination of AMP and Cyclic AMP for PDE3 Activity Study: Application and Computational Analysis for Evaluating the Effect of a Novel 2-oxo-1,2-dihydropyridine-3-carbonitrile Derivative as PDE-3 Inhibitor” (Molecules, 2020)

Molecular target: PDE3A (phosphodiesterase enzyme 3A) (Homo sapiens, UniProt Q14432)
Test: MS/MS assay of cAMP hydrolysis to AMP by purchased PDE3A, dose-response
Format: biochemical

Sequence of PDE3A (phosphodiesterase enzyme 3A) (Q14432 whole entry): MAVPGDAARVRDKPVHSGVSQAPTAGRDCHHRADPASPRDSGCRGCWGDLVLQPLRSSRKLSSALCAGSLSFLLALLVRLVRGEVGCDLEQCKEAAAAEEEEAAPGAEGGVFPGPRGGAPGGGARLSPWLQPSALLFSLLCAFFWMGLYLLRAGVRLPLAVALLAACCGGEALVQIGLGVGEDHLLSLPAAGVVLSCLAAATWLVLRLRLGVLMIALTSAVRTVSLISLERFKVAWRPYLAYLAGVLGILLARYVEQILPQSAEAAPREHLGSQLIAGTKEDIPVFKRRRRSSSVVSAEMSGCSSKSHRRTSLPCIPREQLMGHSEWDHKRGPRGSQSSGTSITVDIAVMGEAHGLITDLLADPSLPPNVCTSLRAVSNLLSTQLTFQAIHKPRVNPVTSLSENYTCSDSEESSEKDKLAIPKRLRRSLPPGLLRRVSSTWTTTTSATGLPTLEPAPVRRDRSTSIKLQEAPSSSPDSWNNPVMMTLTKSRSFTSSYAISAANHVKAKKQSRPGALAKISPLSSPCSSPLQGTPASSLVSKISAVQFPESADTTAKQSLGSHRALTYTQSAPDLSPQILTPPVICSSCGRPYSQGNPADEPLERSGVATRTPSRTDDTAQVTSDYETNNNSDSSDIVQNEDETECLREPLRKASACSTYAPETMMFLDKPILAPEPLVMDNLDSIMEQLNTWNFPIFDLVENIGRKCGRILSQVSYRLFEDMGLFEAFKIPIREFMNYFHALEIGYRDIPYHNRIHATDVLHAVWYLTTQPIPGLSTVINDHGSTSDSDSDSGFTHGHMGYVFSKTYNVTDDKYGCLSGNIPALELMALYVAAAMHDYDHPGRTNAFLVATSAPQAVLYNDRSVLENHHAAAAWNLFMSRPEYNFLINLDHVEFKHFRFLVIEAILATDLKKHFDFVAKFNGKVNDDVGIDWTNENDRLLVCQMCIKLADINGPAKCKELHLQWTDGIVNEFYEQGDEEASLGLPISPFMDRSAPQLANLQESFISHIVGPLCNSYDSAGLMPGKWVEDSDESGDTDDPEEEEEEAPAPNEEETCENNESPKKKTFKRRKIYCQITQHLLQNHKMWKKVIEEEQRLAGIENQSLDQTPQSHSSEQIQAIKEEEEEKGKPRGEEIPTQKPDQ

IC50: 410 nM
Structure (SMILES): CCOC(=O)N1CCC(NC(=O)c2cc(C#N)c(=O)[nH]c2C)CC1 [DF492]
